Patent US20260041093A1, “Ionic Derivatives Of Aromatic Carboxylic Acid For Use As Plant Stimulants, Method For Stimulating Plants And Use Of These Derivatives For Manufacturing Compositions For Stimulating Plants” (FUNDACJA UNIWERSYTETU IM. ADAMA MICKIEWICZA W POZNANIU, priority 2022, published 2026)
Like-named read-outs stand apart in the source and are kept apart here.

Tests used:
Brome Mosaic Virus (BMV) = assay: Protection of barley against Brome Mosaic Virus infection by watering (Examples 28 and 29); assay type: in vivo; details: 80 mg/L, watered twice; 2 weeks after infection
powdery mildew fungus [1] = assay type: in vivo, tomato; details: 80 mg/L, watered twice; 2 weeks after infection
Experimental: Tomato plants, at the stage of the first pair of developed true leaves, were watered twice with a solution of substance 1-32 at a concentration of 80 mg/L, at a weekly interval. The control was tomato plants watered only with water. […] The suspension was prepared from culture on solid medium. Protection against biotic stress was evaluated by comparing the area of leaves affected by infection.

TMV [2] = assay: Protection of tobacco against TMV infected 3 weeks after the last treatment (Example 27); assay type: in vivo; details: infected with TMV 3 weeks after the last treatment
Experimental: They proceeded as in Example 24, using substances 1-4 at concentrations of 10, 40 and 80 mg/L for treatment, with treated and control plants divided into 3 batches and their leaves infected with the virus 1, 2 and 3 weeks after the last treatment, respectively. […] A similar effect occurred with spraying.

TMV [3] = assay: Protection of tobacco against TMV, single spray, comparison with BION (Example 26); assay type: in vivo, Nicotiana tabacum cv. Xanthi; details: sprayed once, infected a week later
Experimental: Tobacco plants (Nicotiana tabacum) cv. Xanthi at the stage of three developed leaves were sprayed once with solutions of substance 1-5 or BION™ at concentrations of 10, 40, 80 mg/L. A week later, they were mechanically infected with TMV by rubbing the leaves with a square soaked in a suspension of purified virus, with a concentration of about 2 μg/ml. The level of protection against the effects of biotic stress was evaluated by comparing the number of necrotic spots caused by TMV on the leaves of plants treated with substances 1-5 and BION™ and control plants.
A reduction in the number of necrotic spots indicates protection from the effects of the biotic agent on the plant.

[4] = tested on: Pseudomonas syringae pv. Tomato (Pst); details: watered twice, Pst 10^5, 2 weeks after infection
Experimental: Tobacco plants at the stage of 3 developed leaves were watered twice, at a weekly interval, with a solution of test substances 1-11 at concentrations of 10, 40, 80 mg/L. The control was tobacco plants watered with water only. One week after the second treatment, a suspension of Pst bacteria at a concentration of 10^5 was spotted into the leaves using an insulin syringe (without a needle). The suspension was prepared from a two-day culture of Pst on solid medium. Protection against biotic stress was evaluated by the proliferation of bacteria in the leaves at the insertion site and the formation of a necrotic spot, compared to the control.
We proceeded as in Example 30, with the effectiveness of protection against biotic stress tested against bacterial cell concentrations raised to about 10^6.

powdery mildew fungus [5] = assay: Protection of tomato against powdery mildew by spraying (Example 35); assay type: in vivo, Lycopersicon Esculentum Mill tomato; details: 40 mg/l, sprayed twice; 2 weeks after pathogen inoculation
Experimental: […] The control was tomato plants watered only with water. […] The suspension was prepared from culture on solid medium. Protection against biotic stress was evaluated by comparing the area of leaves affected by infection.
Proceeded in the way as described in Example 34, with the difference that plants were sprayed and not watered.

C[N+](C)(C)CCO.O=C([O-])c1cc(Br)cc(Br)c1O
% reduction in necrotic spots compared to control (Brome Mosaic Virus (BMV)): 38% | % reduction in necrotic spots compared to control (powdery mildew fungus [1]): 72%

C[N+](C)(C)CCO.O=C([O-])c1cc(F)cc(F)c1O
% reduction in necrotic spots compared to control (Brome Mosaic Virus (BMV)): 27% | % reduction in necrotic spots compared to control (powdery mildew fungus [1]): 70%

C[N+](C)(C)CCO.O=C([O-])c1cc(I)cc(I)c1O
% reduction in necrotic spots compared to control (Brome Mosaic Virus (BMV)): 46% | % reduction in necrotic spots compared to control (powdery mildew fungus [1]): 78%

2-bromoethyl(trimethyl)ammonium 3-chlorosalicylate
% reduction in necrotic spots compared to control (Brome Mosaic Virus (BMV)): 95% | % reduction in necrotic spots compared to control (powdery mildew fungus [1]): 54%

2-chloroethyl(trimethyl)ammonium 3-chlorosalicylate
% reduction in necrotic spots compared to control (Brome Mosaic Virus (BMV)): 36% | % reduction in necrotic spots compared to control (powdery mildew fungus [1]): 57%

2-ethoxyethyl(trimethyl)ammonium 3-chlorosalicylate
% reduction in necrotic spots compared to control (TMV [2]; 10 mg/L): 26% | % reduction in necrotic spots compared to control (TMV [2]; 40 mg/L): 26% | % reduction in necrotic spots compared to control (TMV [2]; 80 mg/L): 30% | % reduction in necrotic spots compared to control (powdery mildew fungus [1]): 55%

2-fluoroethyl(trimethyl)ammonium 3-chlorosalicylate
% reduction in necrotic spots compared to control (Brome Mosaic Virus (BMV)): 56% | % reduction in necrotic spots compared to control (powdery mildew fungus [1]): 36%

2-hydroxyethyl(tributyl)ammonium 3-chlorosalicylate
% reduction in necrotic spots compared to control (TMV [3]; 10 mg/L): 26% | % reduction in necrotic spots compared to control (TMV [3]; 40 mg/L): 26% | % reduction in necrotic spots compared to control (TMV [3]; 80 mg/L): 30% | % reduction in necrotic spots compared to control (powdery mildew fungus [1]): 66%

2-hydroxyethyl(tridecyl)ammonium 3-chlorosalicylate
% reduction in necrotic spots compared to control (TMV [3]; 10 mg/L): 25% | % reduction in necrotic spots compared to control (TMV [3]; 40 mg/L): 46% | % reduction in necrotic spots compared to control (TMV [3]; 80 mg/L): 65% | % reduction in necrotic spots compared to control (powdery mildew fungus [1]): 64%

2-hydroxyethyl(tridodecyl)ammonium 3-chlorosalicylate
% reduction in necrotic spots compared to control (TMV [3]; 10 mg/L): 59% | % reduction in necrotic spots compared to control (TMV [3]; 40 mg/L): 64% | % reduction in necrotic spots compared to control (TMV [3]; 80 mg/L): 89% | % reduction in necrotic spots compared to control (powdery mildew fungus [1]): 47%

2-hydroxyethyl(triethyl)ammonium 3-chlorosalicylate
% reduction in necrotic spots compared to control (TMV [3]; 10 mg/L): 15% | % reduction in necrotic spots compared to control (TMV [3]; 40 mg/L): 26% | % reduction in necrotic spots compared to control (TMV [3]; 80 mg/L): 37% | % reduction in necrotic spots compared to control (powdery mildew fungus [1]): 58%

2-iodoethyl(trimethyl)ammonium 3-chlorosalicylate
% reduction in necrotic spots compared to control (Brome Mosaic Virus (BMV)): 64% | % reduction in necrotic spots compared to control (powdery mildew fungus [1]): 47%

2-methoxyethyl(trimethyl)ammonium 3-chlorosalicylate
% reduction in necrotic spots compared to control (TMV [2]; 10 mg/L): 15% | % reduction in necrotic spots compared to control (TMV [2]; 40 mg/L): 26% | % reduction in necrotic spots compared to control (TMV [2]; 80 mg/L): 37% | % reduction in necrotic spots compared to control (powdery mildew fungus [1]): 67%

CC(=O)Oc1c(Cl)cccc1C(=O)[O-].C[N+](C)(C)CCO [choline 2-acetoxy-3-chlorobenzoate]
% reduction in necrotic spots compared to control (powdery mildew fungus [1]): 45% | % reduction in necrotic spots compared to control ([4]; 10 mg/L): >10% | % reduction in necrotic spots compared to control ([4]; 40 mg/L): 28% | % reduction in necrotic spots compared to control ([4]; 80 mg/L): 35%

CC(=O)Oc1ccccc1C(=O)[O-].C[N+](C)(C)CCO [choline 2-acetoxybenzoate]
% reduction in necrotic spots compared to control (powdery mildew fungus [1]): 52% | % reduction in necrotic spots compared to control ([4]; 10 mg/L): 25% | % reduction in necrotic spots compared to control ([4]; 40 mg/L): 29% | % reduction in necrotic spots compared to control ([4]; 80 mg/L): 69%

CCOc1c(Cl)cccc1C(=O)[O-].C[N+](C)(C)CCO [choline 2-ethoxy-3-chlorobenzoate]
% reduction in necrotic spots compared to control (powdery mildew fungus [1]): 43% | % reduction in necrotic spots compared to control ([4]; 10 mg/L): 24% | % reduction in necrotic spots compared to control ([4]; 40 mg/L): 33% | % reduction in necrotic spots compared to control ([4]; 80 mg/L): 39%

CCOc1ccccc1C(=O)[O-].C[N+](C)(C)CCO [choline 2-ethoxybenzoate]
% reduction in necrotic spots compared to control (powdery mildew fungus [1]): 43% | % reduction in necrotic spots compared to control ([4]; 10 mg/L): 56% | % reduction in necrotic spots compared to control ([4]; 40 mg/L): 60% | % reduction in necrotic spots compared to control ([4]; 80 mg/L): 82%

COc1c(Cl)cccc1C(=O)[O-].C[N+](C)(C)CCO [choline 2-methoxy-3-chlorobenzoate]
% reduction in necrotic spots compared to control (powdery mildew fungus [1]): 49% | % reduction in necrotic spots compared to control ([4]; 10 mg/L): >10% | % reduction in necrotic spots compared to control ([4]; 40 mg/L): 25% | % reduction in necrotic spots compared to control ([4]; 80 mg/L): 39%

COc1ccccc1C(=O)[O-].C[N+](C)(C)CCO [choline 2-methoxybenzoate]
% reduction in necrotic spots compared to control (powdery mildew fungus [1]): 44% | % reduction in necrotic spots compared to control ([4]; 10 mg/L): 54% | % reduction in necrotic spots compared to control ([4]; 40 mg/L): 68% | % reduction in necrotic spots compared to control ([4]; 80 mg/L): 67%

C[N+](C)(C)CCO.O=C([O-])c1cccc(Br)c1O [choline 3-bromosalicylate]
% reduction in necrotic spots compared to control (Brome Mosaic Virus (BMV)): 21% | % reduction in necrotic spots compared to control (powdery mildew fungus [1]): 72%

C[N+](C)(C)CCO.O=C([O-])c1c(Br)ccc(Cl)c1O [choline 3-chloro-6-bromosalicylate]
% reduction in necrotic spots compared to control ([4]; 10 mg/L): 24% | % reduction in necrotic spots compared to control ([4]; 40 mg/L): 29% | % reduction in necrotic spots compared to control ([4]; 80 mg/L): 40% | Reduction in necrotic spots (white patches) compared to control (powdery mildew fungus [5]): 49%

C[N+](C)(C)CCO.O=C([O-])c1c(F)ccc(Cl)c1O [choline 3-chloro-6-fluorosalicylate]
% reduction in necrotic spots compared to control ([4]; 10 mg/L): 19% | % reduction in necrotic spots compared to control ([4]; 40 mg/L): 28% | % reduction in necrotic spots compared to control ([4]; 80 mg/L): 47% | Reduction in necrotic spots (white patches) compared to control (powdery mildew fungus [5]): 45%

C[N+](C)(C)CCO.O=C([O-])c1c(I)ccc(Cl)c1O [choline 3-chloro-6-iodosalicylate]
Reduction in necrotic spots (white patches) compared to control (powdery mildew fungus [5]): 47%

C[N+](C)(C)CCO.O=C([O-])c1cccc(F)c1O [choline 3-fluorosalicylate]
% reduction in necrotic spots compared to control (Brome Mosaic Virus (BMV)): 56% | % reduction in necrotic spots compared to control (powdery mildew fungus [1]): 52%

C[N+](C)(C)CCO.O=C([O-])c1cccc(I)c1O [choline 3-iodosalicylate]
% reduction in necrotic spots compared to control (Brome Mosaic Virus (BMV)): 77% | % reduction in necrotic spots compared to control (powdery mildew fungus [1]): 69%

C[N+](C)(C)CCO.O=C([O-])c1cc(Br)ccc1O [choline 5-bromosalicylate]
% reduction in necrotic spots compared to control (Brome Mosaic Virus (BMV)): 69% | % reduction in necrotic spots compared to control (powdery mildew fungus [1]): 79%

C[N+](C)(C)CCO.O=C([O-])c1cc(F)ccc1O [choline 5-fluorosalicylate]
% reduction in necrotic spots compared to control (Brome Mosaic Virus (BMV)): 88% | % reduction in necrotic spots compared to control (powdery mildew fungus [1]): 54%

C[N+](C)(C)CCO.O=C([O-])c1cc(I)ccc1O [choline 5-iodosalicylate]
% reduction in necrotic spots compared to control (Brome Mosaic Virus (BMV)): 35% | % reduction in necrotic spots compared to control (powdery mildew fungus [1]): 65%

ethyl(trimethyl)ammonium 3-chlorosalicylate
% reduction in necrotic spots compared to control (TMV [2]; 10 mg/L): 25% | % reduction in necrotic spots compared to control (TMV [2]; 40 mg/L): 46% | % reduction in necrotic spots compared to control (TMV [2]; 80 mg/L): 65% | % reduction in necrotic spots compared to control (powdery mildew fungus [1]): 63%
